By IC50 is commonly meant the concentration at which inhibition is half-maximal.

The record followed here is US20250051762A1, “PLATFORM USING DNA-ENCODED SMALL MOLECULE LIBRARIES AND RNA SELECTION TO DESIGN SMALL MOLECULES THAT TARGET RNA” (University of Florida Research Foundation, Incorporated, priority 2021, published 2025).

The experiment deals with pri-miR-27a. Kind of experiment: RT-qPCR of pri- and mature miR-27a in MDA-MB-231 TNBC cells. The experiment is classed as cell-based, human. To be noted: MDA-MB-231, RT-qPCR. Here is the method: Cell lines. Compounds were tested in MDA-MB-231 TNBC cells (HTB-26, ATCC), LNCaP metastatic prostate cancer cells (gifted from Junli Luo lab), MCF-7 (HTB-22, ATCC) breast cancer cells, HeLa cervical adenocarcinoma cells (CCL-2, ATCC), and MCF-10a, a model of healthy breast epithelial cells (CRL-10317, ATCC).
Cell culture and compound treatment. All cells were maintained at 37° C. with 5% CO2. MDA-MB-231 and LNCaP cells were cultured in RPMI 1640 medium with L-glutamine & 25 mM HEPES (Corning) supplemented with 10% (v/v) fetal bovine serum (FBS; Sigma) and 1× (v/v) Antibiotic-Antimycotic solution (Corning). MCF-7 and HeLa cells were cultured in DMEM medium with 4.5 g/L glucose (Corning), supplemented with 10% FBS, 1× (v/v) Glutagro (Corning), and 1× (v/v) Antibiotic-Antimycotic solution. MCF10a cells were cultured in DMEM/F12 50/50 with L-glutamine & 15 mM HEPES (Corning), supplemented with 10% FBS, 20 ng/mL human epidermal growth factor (Pepro Tech Inc.), […] hydrocortisone (Pfaltz & Bauer), 100 ng/mL cholera toxin (Sigma-Aldrich), 10 μg/mL insulin (Sigma-Aldrich), and 1× (v/v) Antibiotic-Antimycotic solution.
MCF-10a cells were transfected with plasmids to express pri-miR-27a and mutant pri-miR-27a in 12- or 24-well plates with Lipofectamine 2000 per the manufacturer's protocol. For treatment of compounds, stocks were diluted in growth medium and added to cells for 48 h. The miRCURY miR-27a LNA inhibitor (QIAGEN, Cat #339121) was used as a positive control by diluting in growth medium to a final concentration of 1 nM. The miRCURY LNA Negative Control (QIAGEN, Cat #YI00199007-DDA) was used as a negative control, which has also diluted in growth medium to a final concentration of 1 nM.
Analysis of mRNA abundance: Each cell line was grown as a monolayer in 12- or 24-well plates and treated as described in “Cell culture and compound treatment”. After 48 h, the cells were lysed, and total RNA was harvested using a Zymo Quick RNA Miniprep Kit per the manufacturer's protocol. To measure the abundance of mature miRNAs, approximately 250 ng of total RNA was reverse transcribed using the High Flex Buffer provided in a miScript II RT Kit (Qiagen) per the manufacturer's protocol (10 μL total reaction volume). For pri-miRNAs and mRNA, approximately 300 ng of total RNA was reverse transcribed using a qScript cDNA synthesis kit (10 μL total reaction volume, Quanta BioSciences). For all types of RNAs, 2 μL of the RT reaction was used for qPCR using SYBR Green Master Mix and a QuantStudio™ 5 Real-Time PCR System. Relative abundance of mature miRNAs was calculated by normalizing to RNU6, and relative abundance for pri-miRNAs and mRNAs was calculated by normalizing to 18S ribosomal RNA, using the […]. (12)
(Real-time PCR tracks product formation cycle by cycle.)

Structures are written as SMILES.

As to `C#CCN(CC(N)=O)C(=O)C[C@H](Cc1c[nH]c2ccccc12)NC(=O)[C@@H]1C[C@H](NC(=O)Cn2c(=O)[nH]c3ccccc3c2=O)CN1` [Compound 9], the “inhibition of miR-27a (comparison of 5, 7, 9, 10)” value is “inhibited miR-27a to a greater extent than 5 and 7”. In addition, the pri-miR-27a levels result (48 h) is recorded as “increased”. Further, the IC50 (48 h, read-out: IC50 for reduction of mature miR-27a levels) is around 1000 nM.
